Type in all cases: biochemical
For one experiment, the target named is T1, MMP-10 (Homo sapiens, UniProt P09238).
T1 construct: purchased R&D Systems 910-MP
Kind of experiment: In vitro MMP-10 inhibition test. From the text: (§1) The MMP-mediated amidolytic cleavage of a suitable peptide substrate leads to an increase in fluorescent light here too. The signal intensity of the fluorescent light is directly proportional to the enzyme activity. The active concentration of a test compound at which half the enzyme is inhibited (50% signal intensity of the fluorescent light) is reported as the […].
Recombinant MMP-10 (from R&D Systems, 910-MP) is chemically activated in accordance with the manufacturer's instructions using APMA. 1 μl of the test compound to be analysed (as a solution in DMSO, suitable concentrations, for example, 1 nM to 30 μM) is pipetted into 24 μl of activated enzyme (final concentration, for example, 2 nM) in reaction buffer (50 mM Tris/HCl pH 7.5, 10 mM CaCl2, 150 mM NaCl, 0.05% Brij®-35) in a white 384-hole microtiter plate (MTP). The enzymatic reaction is started by adding the intramolecularly quenched Mca-Arg-Pro-Lys-Pro-Val-Glu-Nval-Trp-Arg-Lys(Dnp)-NH2 substrate (final concentration, for example, 10 μM; R&D Systems, ES-002), so as to result in a total test volume of 50 μl. The course of the MMP-10 reaction is measured by measuring the fluorescence intensity (excitation 320 nm, emission 410 nm) over a suitable period of time (for example over 120 min at a temperature of 32° C.).

In the next experiment the target is T2, MMP-14 (Homo sapiens, UniProt P50281).
T2 construct: purchased R&D Systems 918-MP
Put plainly: In vitro MMP-14 inhibition test.
Excerpt: as §1
(§2) Recombinant MMP-14 (from R&D Systems, 918-MP) is enzymatically activated in accordance with the manufacturer's instructions using recombinant furin (from R&D Systems, 1503-SE). 1 μl of the test compound to be analysed (as a solution in DMSO, suitable concentrations e.g. 1 nM to 30 μM) is pipetted into 24 μl of activated enzyme (final concentration e.g. 0.5 nM) in reaction buffer (50 mM Tris/HCl pH 7.5, 10 mM CaCl2, 150 mM NaCl, 0.05% Brij®-35) in a white 384-hole microtiter plate (MTP). The enzymatic reaction is started by adding the intramolecularly quenched Mca-Lys-Pro-Leu-Gly-Leu-Dpa(Dnp)-Ala-Arg-NH2 substrate (final concentration, for example, 5 μM; R&D Systems, ES-010), so as to result in a total test volume of 50 μl. The course of the MMP-14 reaction is measured by measuring the fluorescence intensity (excitation 320 nm, emission 410 nm) over a suitable period of time (for example over 120 min at a temperature of 32° C.).

In a further experiment the target is T3, MMP-16 (Homo sapiens, UniProt P51512).
T3 construct: purchased R&D Systems 1785-MP
Kind of experiment: In vitro MMP-16 inhibition test.
Excerpt: as §1
as §2, with “MMP-16” for “MMP-14”, “1785-MP)” for “918-MP)”, “1” for “0.5”

The target of the next experiment is T4, mouse MMP-7 (Mus musculus, UniProt Q10738).
T4 construct: purchased R&D Systems 2967-MP
T4 sequence (Q10738 95-264): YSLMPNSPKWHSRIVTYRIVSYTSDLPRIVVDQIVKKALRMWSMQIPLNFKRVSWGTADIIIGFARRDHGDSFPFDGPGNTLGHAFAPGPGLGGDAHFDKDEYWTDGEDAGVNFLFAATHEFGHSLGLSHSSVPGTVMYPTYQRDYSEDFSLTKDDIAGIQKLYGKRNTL
Put plainly: In vitro mouse MMP-7 inhibition test.
Excerpt: as §1
(§3) Recombinant mouse MMP-7 (from R&D Systems, 2967-MP) is chemically activated in accordance with the manufacturer's instructions using APMA. 1 μl of the test compound to be analysed (as a solution in DMSO, suitable concentrations, for example, 1 nM to 30 μM) is pipetted into 24 μl of activated enzyme (final concentration, for example, 0.5 nM) in reaction buffer (50 mM Tris/HCl pH 7.5, 10 mM CaCl2, 150 mM NaCl, 0.05% Brij®-35) in a white 384-hole microtiter plate (MTP). The enzymatic reaction is started by adding the intramolecularly quenched Mca-Lys-Pro-Leu-Gly-Leu-Dpa(Dnp)-Ala-Arg-NH2 substrate (final concentration, for example, 5 μM; R&D Systems, ES-010), so as to result in a total test volume of 50 μl. The course of the MMP-7 reaction is measured by measuring the fluorescence intensity (excitation 320 nm, emission 410 nm) over a suitable period of time (for example over 120 min at a temperature of 32° C.).

The next experiment concerns the target T5, mouse MMP-9 (Mus musculus, UniProt P41245).
T5 construct: purchased R&D Systems 909-MP
Put plainly: In vitro mouse MMP-9 inhibition test.
Excerpt: as §1
as §3, with “MMP-9” for “MMP-7”, “909-MP)” for “2967-MP)”, “0.1” for “0.5”, “Mca-Pro-Leu-Gly-Leu-Dpa(Dnp)-Ala-Arg-NH2” for “Mca-Lys-Pro-Leu-Gly-Leu-Dpa(Dnp)-Ala-Arg-NH2”, “ES-001),” for “ES-010),”

T1 sequence (P09238 99-476): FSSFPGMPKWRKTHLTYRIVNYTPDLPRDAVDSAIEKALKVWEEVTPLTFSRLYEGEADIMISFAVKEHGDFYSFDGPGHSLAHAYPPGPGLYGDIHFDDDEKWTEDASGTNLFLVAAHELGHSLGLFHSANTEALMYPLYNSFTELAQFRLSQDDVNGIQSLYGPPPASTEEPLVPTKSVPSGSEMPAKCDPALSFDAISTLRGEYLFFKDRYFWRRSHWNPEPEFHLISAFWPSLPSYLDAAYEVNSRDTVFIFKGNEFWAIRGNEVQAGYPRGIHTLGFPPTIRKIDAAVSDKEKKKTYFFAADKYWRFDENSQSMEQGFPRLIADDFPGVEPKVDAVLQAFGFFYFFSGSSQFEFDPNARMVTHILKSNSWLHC
T3 sequence (P51512 120-607): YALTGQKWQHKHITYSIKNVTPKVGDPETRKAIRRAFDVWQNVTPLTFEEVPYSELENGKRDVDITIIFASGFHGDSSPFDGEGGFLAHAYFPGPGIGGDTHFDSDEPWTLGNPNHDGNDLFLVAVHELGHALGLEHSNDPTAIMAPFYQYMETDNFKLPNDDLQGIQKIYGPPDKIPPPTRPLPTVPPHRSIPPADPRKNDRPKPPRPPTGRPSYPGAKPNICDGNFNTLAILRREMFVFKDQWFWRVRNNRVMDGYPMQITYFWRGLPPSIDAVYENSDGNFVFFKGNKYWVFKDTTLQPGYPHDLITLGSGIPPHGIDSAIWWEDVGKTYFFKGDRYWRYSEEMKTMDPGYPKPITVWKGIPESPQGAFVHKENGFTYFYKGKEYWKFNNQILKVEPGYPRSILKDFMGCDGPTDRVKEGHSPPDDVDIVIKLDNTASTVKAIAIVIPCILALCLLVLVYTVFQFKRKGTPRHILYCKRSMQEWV
T5 sequence (P41245 108-730): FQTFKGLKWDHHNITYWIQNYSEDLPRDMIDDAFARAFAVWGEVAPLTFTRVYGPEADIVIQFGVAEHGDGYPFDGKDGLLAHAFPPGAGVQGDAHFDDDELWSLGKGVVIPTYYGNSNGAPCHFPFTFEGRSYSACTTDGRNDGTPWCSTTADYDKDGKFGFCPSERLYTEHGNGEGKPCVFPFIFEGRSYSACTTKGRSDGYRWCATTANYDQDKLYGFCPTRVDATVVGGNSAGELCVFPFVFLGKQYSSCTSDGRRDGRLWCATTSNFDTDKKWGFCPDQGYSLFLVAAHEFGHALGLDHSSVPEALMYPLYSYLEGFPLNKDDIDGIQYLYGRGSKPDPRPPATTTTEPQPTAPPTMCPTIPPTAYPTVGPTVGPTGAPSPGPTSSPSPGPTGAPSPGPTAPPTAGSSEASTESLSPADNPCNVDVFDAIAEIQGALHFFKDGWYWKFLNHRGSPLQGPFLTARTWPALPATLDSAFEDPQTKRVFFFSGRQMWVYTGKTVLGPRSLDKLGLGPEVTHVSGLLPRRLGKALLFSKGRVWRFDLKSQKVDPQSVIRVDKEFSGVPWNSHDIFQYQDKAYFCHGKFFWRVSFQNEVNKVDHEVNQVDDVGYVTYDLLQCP

Turning to `O=C(O)[C@H]1[C@H](Cn2nnc3ccccc3c2=O)CC[C@@H]1C(=O)c1ccc(OCC2CCOCC2)cc1` (stereo in doubt) [Example 1, (+/−)-(1RS,2SR,5RS)-2-[(4-Oxo-1,2,3-benzotriazin-3(4H)-yl)methyl]-5-[4-(tetrahydro-2H-pyran-4-ylmethoxy)benzoyl]cyclopentanecarboxylic acid], the IC50 (as a rule, the point on the concentration scale where inhibition reaches its midpoint) on MMP-10 amounted to 120 nM; against MMP-14, 160 nM; against MMP-16 it was 1500 nM; at mouse MMP-7, 85 nM; at mouse MMP-9, 560 nM.

These data come from patent US20170114049A1, “2,5-DISUBSTITUTED CYCLOPENTANE CARBOXYLIC ACIDS FOR THE TREATMENT OF RESPIRATORY TRACT DISEASES” (BAYER PHARMA AKTIENGESELLSCHAFT, priority 2014, published 2017).
